Source: PubChem BioAssay (NCI)
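Each compound was tested at five concentrations against cells in 96-well plates for 48 hours. TGI marks complete inhibition of growth.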

Legend:
Assay in all cases: DTP human tumour cell line panel, 48 h
[1] = tested on: EKVX NSCLC
[2] = tested on: HOP-92 NSCLC
[3] = tested on: IGROV1 ovarian
[4] = tested on: KM12 colon
[5] = tested on: NCI-H522 lung
[6] = tested on: OVCAR-3 ovarian
[7] = tested on: OVCAR-4 ovarian
[8] = tested on: OVCAR-8 ovarian
[9] = tested on: SK-MEL-2 melanoma
[10] = tested on: SNB-75 CNS
[11] = tested on: HCC-2998 colon
[12] = tested on: HL-60(TB) leukemia

| Compound | TGI [1] [µM] | TGI [2] [µM] | TGI [3] [µM] | TGI [4] [µM] | TGI [5] [µM] | TGI [6] [µM] | TGI [7] [µM] | TGI [8] [µM] | TGI [9] [µM] | TGI [10] [µM] | TGI [11] [µM] | TGI [12] [µM] |
| --- | --- | --- | --- | --- | --- | --- | --- | --- | --- | --- | --- | --- |
| Cc1n[nH]c(=O)c2c3c([nH]c12)-c1ccccc1C3 | > 100 | > 100 | > 100 | > 100 | > 100 | > 100 | > 100 | > 100 | > 100 | 66.6 | – | – |
| COC(OC)c1cccc2c1C(=O)CCC1(CC2)OCCCCO1 | – | – | > 100 | > 100 | > 100 | > 100 | > 100 | > 100 | > 100 | > 100 | > 100 | > 100 |
| CC(NC(CC12CC3CC(CC(C3)C1)C2)C(N)=O)c1ccccc1 (stereo not drawn) | > 100 | – | > 100 | – | 47.5 | 26.6 | 98.5 | 64.4 | – | – | 40.7 | 28.4 |
| Cc1cccc(NC(=S)NNC(=O)c2cc(-c3ccccc3)nc3ccccc23)c1 | – | 68.5 | > 100 | > 100 | 85.8 | 66.5 | > 100 | > 100 | 45.8 | > 100 | 57.3 | – |
| Cc1ccc(-c2ccc3c(c2)Sc2ccccc2O3)n1C | > 88.3 | > 100 | 1.2 | > 43.2 | 0.373 | > 100 | > 100 | > 100 | 4.26 | – | 0.625 | 0.261 |
| O=C1C=C2SC3C[C@@]24CC1(O)[N+]1=c2c4c(c(O)c4c2=C(C=N4)CC1)N3 | 40.9 | 2.67 | 2.98 | 2.91 | 0.789 | 0.515 | 2.53 | 3.63 | 2.77 | 3.23 | – | 0.534 |
| O=c1[nH]nc(-c2cccc([N+](=O)[O-])c2)[nH]1 | > 100 | – | > 100 | > 100 | > 100 | > 100 | > 100 | > 100 | > 100 | > 100 | > 100 | > 100 |
| Cc1cc2nc3c(N)nn(CCCN(C)C)c3nc2cc1C | > 100 | – | – | > 100 | – | > 100 | > 100 | > 100 | – | > 100 | > 100 | – |
| O=C1OCc2nc3c(c(-c4ccccc4C(F)(F)F)c21)C(=O)OC3 | > 100 | > 100 | > 100 | > 100 | > 100 | > 100 | – | > 100 | > 100 | – | > 100 | > 100 |
| COc1cc2c(c(O)c1OC)C(O)C1CCC(=O)N1C2c1ccc2c(c1)OCO2 (stereo not drawn) | > 100 | > 100 | > 100 | > 100 | > 100 | > 100 | > 100 | > 100 | – | > 100 | > 100 | > 100 |
| CCC(C)C(NC(=O)c1cccc2c(=O)c3ccccc3[nH]c12)C(=O)O (stereo not drawn) | > 100 | > 100 | > 100 | > 100 | > 100 | > 100 | > 100 | > 100 | > 100 | > 100 | – | – |
| C[N+]1(CC[N+]2(C)CCCC2c2cccnc2)CCCC1c1cccnc1 (stereo not drawn) | 86.9 | > 100 | > 100 | > 100 | > 100 | > 100 | > 100 | > 100 | > 100 | > 100 | > 100 | – |
| CCOC(=O)c1c(NS(=O)(=O)c2ccccc2)sc2c1CCCC2 | > 100 | – | > 100 | > 100 | – | 82.3 | – | > 100 | > 100 | > 100 | – | > 100 |
| Cc1cc2c3ccccc3n3c2c2c1OC1(C)CCC(C2C1)C3(C)C (stereo not drawn) | – | > 25 | > 25 | > 25 | > 25 | > 25 | > 25 | > 25 | > 25 | – | > 25 | > 25 |
| CCCCCCCC(=O)NC(C)(C)C(=O)NCC(=O)NC(CC(C)C)C(=O)NC(C)(C)C(=O)NCC(=O)NCC(=O)NC(CC(C)C)C(=O)NC(C)(C)C(=O)NCC(=O)NC(C(=O)NC(CO)CC(C)C)C(C)CC (stereo not drawn) | 6.91 | 6.36 | 7.17 | 5.15 | 7.26 | 6.36 | 7.9 | 7.62 | 5.85 | 7.28 | 7.71 | – |
| COc1ccc(C(CC(=O)c2cccs2)C(=O)c2ccc3c(c2)OCO3)cc1 (stereo not drawn) | > 100 | – | > 100 | > 100 | – | – | > 100 | > 100 | – | > 100 | > 100 | > 100 |
| CCN(CC)C(=O)N[C@@H](CC(C)C)C(=O)NC | > 100 | – | > 100 | > 100 | > 100 | > 100 | > 100 | > 100 | > 100 | > 100 | > 100 | > 100 |
| O=C(O)c1ccccc1Sc1ccc(C=C2NC(=S)N(c3ccccc3)C2=O)s1 | > 100 | – | > 100 | > 100 | 38.9 | > 100 | 59.8 | > 100 | > 100 | > 100 | > 100 | 82.1 |
| NS(=O)(=O)c1ccc(Nc2c3ccccc3nc3c(C(=O)NC(CO)(CO)CO)cccc23)cc1 | > 1 | 0.389 | 0.506 | 0.309 | 0.306 | 0.339 | 0.193 | 0.595 | 0.396 | – | 0.39 | 0.642 |
| C#C[C@]1(O)CC[C@H]2[C@@H]3CCC4=C/C(=N/OC(=O)c5cccc6cc7ccccc7nc56)CC[C@@H]4[C@H]3CC[C@@]21CC | – | > 100 | > 100 | > 100 | – | > 100 | > 100 | > 100 | > 100 | > 100 | > 100 | > 100 |
| O=C1CC2(CCN(Cc3ccccc3)CC2)C(=O)N1N1CCCCC1 | – | – | > 100 | > 100 | > 100 | > 100 | – | > 100 | > 100 | > 100 | – | > 100 |
